Experiments:
Type in all cases: cell-based
[1] = test system: Salmonella TA98; assay: Salmonella plate-incorporation mutagenicity assay, strain TA98, with S9 mix
[2] = test system: Salmonella TA100; assay: Salmonella plate-incorporation mutagenicity assay, strain TA100; conditions: for Mutagenic potency, Revertants/µg ± S.E., TA100 / Mutagenicity call TA100: plate-incorporation, +S9
[3] = test system: Salmonella TA104; assay: Salmonella plate-incorporation mutagenicity assay, strain TA104, with S9 mix; conditions: for Mutagenic potency, Revertants/µg ± S.E., TA104: plate-incorporation, +S9
[4] = TA98 +S9, Test 1, 2 µg/plate, zero-dose 33/40/39
[5] = TA98 +S9, Test 1, 5 µg/plate, zero-dose 33/40/39
[6] = TA98 +S9, Test 1, 10 µg/plate, zero-dose 33/40/39
[7] = TA98 +S9, Test 1, 20 µg/plate, zero-dose 33/40/39
[8] = TA98 +S9, Test 1, 40 µg/plate, zero-dose 33/40/39
[9] = TA98 +S9, Test 1, 80 µg/plate, zero-dose 33/40/39
[10] = TA98 +S9, Test 2, 10 µg/plate, zero-dose 43/41/30
[11] = TA98 +S9, Test 2, 20 µg/plate, zero-dose 43/41/30
[12] = TA98 +S9, Test 2, 40 µg/plate, zero-dose 43/41/30
[13] = TA98 +S9, Test 2, 80 µg/plate, zero-dose 43/41/30
[14] = TA98 +S9, Test 3, 10 µg/plate, zero-dose 49/50/50
[15] = TA98 +S9, Test 3, 20 µg/plate, zero-dose 49/50/50
[16] = TA98 +S9, Test 3, 40 µg/plate, zero-dose 49/50/50
[17] = TA100 +S9, Test 1, 2 µg/plate, zero-dose 99/110/110
[18] = TA100 +S9, Test 1, 5 µg/plate, zero-dose 99/110/110
[19] = TA100 +S9, Test 1, 10 µg/plate, zero-dose 99/110/110
[20] = TA100 +S9, Test 1, 20 µg/plate, zero-dose 99/110/110
[21] = TA100 +S9, Test 1, 40 µg/plate, zero-dose 99/110/110
[22] = TA100 +S9, Test 1, 80 µg/plate, zero-dose 99/110/110
[23] = TA100 +S9, Test 2, 40 µg/plate, zero-dose 84/78/80
[24] = TA100 +S9, Test 3, 40 µg/plate, zero-dose 127/118/125
[25] = TA104 +S9, Test 2, 40 µg/plate, zero-dose 276/260/270
[26] = TA100 +S9, Test 2, 5 µg/plate, zero-dose 84/78/80
[27] = TA100 +S9, Test 2, 10 µg/plate, zero-dose 84/78/80
[28] = TA100 +S9, Test 2, 20 µg/plate, zero-dose 84/78/80
[29] = TA100 +S9, Test 3, 5 µg/plate, zero-dose 127/118/125
[30] = TA100 +S9, Test 3, 10 µg/plate, zero-dose 127/118/125
[31] = TA100 +S9, Test 3, 20 µg/plate, zero-dose 127/118/125
[32] = TA104 +S9, Test 2, 2 µg/plate, zero-dose 276/260/270
[33] = TA104 +S9, Test 2, 5 µg/plate, zero-dose 276/260/270
[34] = TA104 +S9, Test 2, 10 µg/plate, zero-dose 276/260/270
[35] = TA104 +S9, Test 2, 20 µg/plate, zero-dose 276/260/270
[36] = TA104 +S9, Test 3, 2 µg/plate, zero-dose 402/395/336
[37] = TA104 +S9, Test 3, 5 µg/plate, zero-dose 402/395/336
[38] = TA104 +S9, Test 3, 10 µg/plate, zero-dose 402/395/336
[39] = TA104 +S9, Test 3, 20 µg/plate, zero-dose 402/395/336

`O[C@@H]1c2ccccc2-c2c(ccc3ccccc23)[C@H]1O` (racemic) [B[c]P 5,6-diol, (± )-trans-5,6-Dihydrobenzo[c]phenanthrene 5,6-diol] was tested, and the Rev/plate [1, 4] was 31 rev/plate, the Rev/plate [1, 5] was 41 rev/plate and the Rev/plate [1, 6] was 41 rev/plate. The Rev/plate [1, 7] was 29 rev/plate, the Rev/plate [1, 8] was 34 rev/plate and the Rev/plate [1, 9] was 40 rev/plate. The Rev/plate [1, 10] was 43/42, the Rev/plate [1, 11] was 27/49 and the Rev/plate [1, 12] was 46/33. The Rev/plate [1, 13] was 52/35, the Rev/plate [1, 14] was 51/47 and the Rev/plate [1, 15] was 46/60. The Rev/plate [1, 16] was 51/47, the Rev/plate ([1]; TA98 +S9, Test 3, 100 µg/plate, zero-dose 49/50/50) was 32/47 and the “Mutagenic potency, Revertants/µg ± S.E., TA98” value (from here on “Mutagenic potency … TA98”) ([1]; plate-incorporation, +S9) was −0.1 ± 0.1 rev/µg. It also gave a Rev/plate [2, 17] of 132 rev/plate, a Rev/plate [2, 18] of 151 rev/plate and a Rev/plate [2, 19] of 147 rev/plate. For the same compound, the Rev/plate [2, 20] was 192 rev/plate, the Rev/plate [2, 21] was 193 rev/plate and the Rev/plate [2, 22] was 263 rev/plate. The Rev/plate [2, 23] was 161/116, the Rev/plate ([2]; TA100 +S9, Test 2, 80 µg/plate, zero-dose 84/78/80) was 129/144 and the Rev/plate ([2]; TA100 +S9, Test 2, 120 µg/plate, zero-dose 84/78/80) was 127/129. The Rev/plate [2, 24] was 210/248, the Rev/plate ([2]; TA100 +S9, Test 3, 80 µg/plate, zero-dose 127/118/125) was 306/328 and the Rev/plate ([2]; TA100 +S9, Test 3, 120 µg/plate, zero-dose 127/118/125) was 375/304. For the same compound, the “Mutagenic potency, Revertants/µg ± S.E., TA100” value (shortened to “Mutagenic potency … TA100”) [2] was 1.6 ± 0.7 rev/µg, the “Mutagenicity call TA100” value [2] was “(+) (Called mutagenic (+) based on showing reproducible, dose-related increases in rev/plate that reached or exceeded 2-fold relative to zero-dose controls)” and the Rev/plate [3, 25] was 457 rev/plate. For the same compound, the Rev/plate ([3]; TA104 +S9, Test 2, 80 µg/plate, zero-dose 276/260/270) was 506 rev/plate, the Rev/plate ([3]; TA104 +S9, Test 2, 120 µg/plate, zero-dose 276/260/270) was 507 rev/plate and the “Mutagenic potency, Revertants/µg ± S.E., TA104” value (“Mutagenic potency … TA104” for short) [3] was 2.5 ± 1.2 rev/µg.
`O[C@@H]1c2ccccc2-c2c(ccc3sccc23)[C@H]1O` (racemic) [P[3,4-b]T 6,7-diol, (± )-trans-6,7-Dihydrophenanthro[3,4-b]thiophene 6,7-diol] showed a Rev/plate [1, 4] of 45 rev/plate, a Rev/plate [1, 5] of 47 rev/plate and a Rev/plate [1, 6] of 61 rev/plate. It also gave a Rev/plate [1, 7] of 62 rev/plate, a Rev/plate [1, 8] of 107 rev/plate and a Rev/plate [1, 9] of 130 rev/plate. For the same compound, the Rev/plate [1, 11] was 64/63, the Rev/plate [1, 12] was 72/84 and the Rev/plate [1, 13] was 146/141. For the same compound, the Rev/plate ([1]; TA98 +S9, Test 2, 150 µg/plate, zero-dose 43/41/30) was 207/190, the Rev/plate [1, 15] was 90/111 and the Rev/plate [1, 16] was 132/132. For the same compound, the Rev/plate ([1]; TA98 +S9, Test 3, 80 µg/plate, zero-dose 49/50/50) was 181/199, the Rev/plate ([1]; TA98 +S9, Test 3, 150 µg/plate, zero-dose 49/50/50) was 241/222 and the “Mutagenic potency … TA98” value ([1]; plate-incorporation, +S9) was 1.4 ± 0.2 rev/µg. For the same compound, the “Mutagenicity call TA98” value ([1]; plate-incorporation, +S9) was “(+) (Called mutagenic (+) based on showing reproducible, dose-related increases in rev/plate that reached or exceeded 2-fold relative to zero-dose controls)”, the Rev/plate [2, 17] was 280 rev/plate and the Rev/plate [2, 18] was 461 rev/plate. For the same compound, the Rev/plate [2, 19] was 580 rev/plate, the Rev/plate [2, 20] was 1052 rev/plate and the Rev/plate [2, 21] was 1172 rev/plate. The Rev/plate [2, 22] was 1286 rev/plate, the Rev/plate ([2]; TA100 +S9, Test 2, 2 µg/plate, zero-dose 84/78/80) was 224/217 and the Rev/plate [2, 26] was 369/364. For the same compound, the Rev/plate [2, 27] was 746/565, the Rev/plate [2, 28] was 593/607 and the Rev/plate ([2]; TA100 +S9, Test 3, 2 µg/plate, zero-dose 127/118/125) was 305/298. The Rev/plate [2, 29] was 573/564, the Rev/plate [2, 30] was 862/714 and the Rev/plate [2, 31] was 1142/1113. For the same compound, the “Mutagenic potency … TA100” value [2] was 59.8 ± 6.1 rev/µg, the “Mutagenicity call TA100” value [2] was “(+) (Called mutagenic (+) based on showing reproducible, dose-related increases in rev/plate that reached or exceeded 2-fold relative to zero-dose controls)” and the Rev/plate [3, 32] was 365/338. For the same compound, the Rev/plate [3, 33] was 407/431, the Rev/plate [3, 34] was 475/484 and the Rev/plate [3, 35] was 538/576. The Rev/plate [3, 36] was 475/419, the Rev/plate [3, 37] was 498/541 and the Rev/plate [3, 38] was 532/550. For the same compound, the Rev/plate [3, 39] was 533/627 and the “Mutagenic potency … TA104” value [3] was 24.9 ± 8.3 rev/µg.
With `O[C@@H]1c2ccccc2-c2c(ccc3ccsc23)[C@H]1O` (racemic) [P[4,3-b]T 6,7-diol, (±)-trans-6,7-Dihydrophenanthro[4,3-b]thiophene 6,7-diol] the Rev/plate [1, 4] was 34 rev/plate, the Rev/plate [1, 5] was 35 rev/plate and the Rev/plate [1, 6] was 47 rev/plate. It also gave a Rev/plate [1, 7] of 52 rev/plate, a Rev/plate [1, 8] of 39 rev/plate and a Rev/plate [1, 9] of 36 rev/plate. For the same compound, the Rev/plate ([1]; TA98 +S9, Test 2, 5 µg/plate, zero-dose 43/41/30) was 28/34, the Rev/plate [1, 10] was 27/28 and the Rev/plate [1, 11] was 38/27. For the same compound, the Rev/plate [1, 12] was 33/27, the Rev/plate ([1]; TA98 +S9, Test 3, 5 µg/plate, zero-dose 49/50/50) was 50/53 and the Rev/plate [1, 14] was 43/47. The Rev/plate [1, 15] was 52/47, the Rev/plate [1, 16] was 48/50 and the “Mutagenic potency … TA98” value ([1]; plate-incorporation, +S9) was −0.2 ± 0.1 rev/µg. For the same compound, the Rev/plate [2, 17] was 101 rev/plate, the Rev/plate [2, 18] was 128 rev/plate and the Rev/plate [2, 19] was 126 rev/plate. The Rev/plate [2, 20] was 127 rev/plate, the Rev/plate [2, 21] was 132 rev/plate and the Rev/plate [2, 22] was 137 rev/plate. The Rev/plate [2, 26] was 97/98, the Rev/plate [2, 27] was 79/88 and the Rev/plate [2, 28] was 94/113. For the same compound, the Rev/plate [2, 23] was 119/81, the Rev/plate [2, 29] was 125/135 and the Rev/plate [2, 30] was 132/119. For the same compound, the Rev/plate [2, 31] was 134/155, the Rev/plate [2, 24] was 136/128 and the “Mutagenic potency … TA100” value [2] was 0.4 ± 0.1 rev/µg. The Rev/plate [3, 33] was 330/353, the Rev/plate [3, 34] was 391/347 and the Rev/plate [3, 35] was 348/340. The Rev/plate [3, 25] was 305/354, the Rev/plate [3, 37] was 438/407 and the Rev/plate [3, 38] was 442/462. For the same compound, the Rev/plate [3, 39] was 423/445, the Rev/plate ([3]; TA104 +S9, Test 3, 40 µg/plate, zero-dose 402/395/336) was 365/373 and the “Mutagenic potency … TA104” value [3] was 9.2 ± 1.3 rev/µg.
In the case of `Nc1ccc2cc3ccccc3cc2c1` [2-aminoanthracene, reference compound], the Rev/plate ([3]; TA104 +S9, Test 1, 0.1 µg/plate, zero-dose 379/400/370) was 469/478, the Rev/plate ([3]; TA104 +S9, Test 1, 0.25 µg/plate, zero-dose 379/400/370) was 650/632 and the Rev/plate ([3]; TA104 +S9, Test 1, 0.5 µg/plate, zero-dose 379/400/370) was 849/818. The Rev/plate ([3]; TA104 +S9, Test 1, 1 µg/plate, zero-dose 379/400/370) was 1004/998, the Rev/plate ([3]; TA104 +S9, Test 1, 2 µg/plate, zero-dose 379/400/370) was 1335/1432 and the Rev/plate ([3]; TA104 +S9, Test 2, 0.1 µg/plate, zero-dose 276/260/270) was 366/337. For the same compound, the Rev/plate ([3]; TA104 +S9, Test 2, 0.25 µg/plate, zero-dose 276/260/270) was 521/530, the Rev/plate ([3]; TA104 +S9, Test 2, 0.5 µg/plate, zero-dose 276/260/270) was 764/666 and the Rev/plate ([3]; TA104 +S9, Test 2, 1 µg/plate, zero-dose 276/260/270) was 983/956. For the same compound, the Rev/plate [3, 32] was 1321/1392, the Rev/plate ([3]; TA104 +S9, Test 3, 0.1 µg/plate, zero-dose 402/395/336) was 444/419 and the Rev/plate ([3]; TA104 +S9, Test 3, 0.25 µg/plate, zero-dose 402/395/336) was 570/588. The Rev/plate ([3]; TA104 +S9, Test 3, 0.5 µg/plate, zero-dose 402/395/336) was 822/811, the Rev/plate ([3]; TA104 +S9, Test 3, 1 µg/plate, zero-dose 402/395/336) was 1079/1097 and the Rev/plate [3, 36] was 1434/1518. For the same compound, the Rev/plate ([3]; TA104 +S9, Test 4, 0.1 µg/plate, zero-dose 482/455/462) was 573/564, the Rev/plate ([3]; TA104 +S9, Test 4, 0.25 µg/plate, zero-dose 482/455/462) was 699/711 and the Rev/plate ([3]; TA104 +S9, Test 4, 0.5 µg/plate, zero-dose 482/455/462) was 864/989. For the same compound, the Rev/plate ([3]; TA104 +S9, Test 4, 1 µg/plate, zero-dose 482/455/462) was 1185/1181.
